Data from patent publication US20240409536A1, “COMPOUNDS AND METHODS FOR MODULATING SPLICING” (REMIX THERAPEUTICS INC., priority 2021, published 2024).
pIC50: −log10 of the molar value.

Assays:
SMN2 mRNA = experiment: Gene panel canonical junction qPCR assay, SMN2 CJ mRNA decrease; format: cell-based, human; details: Homo sapiens, canonical junction qPCR, read-out: SMN2 IC50 (decrease in CJ mRNA levels)
Procedure, shortened: (§1)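 IC50 values describe loss of canonical-junction transcript, fitted by 4-parameter logistic to percent response derived from fixed ΔCt windows. Read-out: RT-qPCR on lysates of compound-treated K562 or A673 cells, probes overlapping the exon junction, ΔΔCt versus housekeeping gene and DMSO control.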

MYB mRNA = experiment: Gene panel canonical junction qPCR assay, MYB CJ mRNA decrease; format: cell-based, human; details: Homo sapiens, canonical junction qPCR, read-out: MYB IC50 (decrease in CJ mRNA levels)
Procedure, shortened: as §1

HiBiT-tagged MYB protein = experiment: HiBiT protein abundance assay, MYB (K562 HiBiT knock-in cells); format: cell-based, human; details: 24 hours
Procedure, shortened: (§2)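 K562 cells with endogenous HiBiT knock-in tag, 10-point 3-fold dilutions (top 10 μM final, ≤0.25% DMSO), 24 h at 37 °C. Lytic Nano-Glo HiBiT luminescence, normalized to DMSO and unmodified K562 baselines; IC50 is concentration giving 50% protein abundance from four-parameter fit.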

HTT mRNA = experiment: Gene panel canonical junction qPCR assay, HTT CJ mRNA decrease; format: cell-based, human; details: Homo sapiens, canonical junction qPCR, read-out: HTT IC50 (decrease in CJ mRNA levels)
Procedure, shortened: as §1

Target C mRNA = experiment: Gene panel canonical junction qPCR assay, Target C CJ mRNA decrease; format: cell-based; details: Homo sapiens, canonical junction qPCR, read-out: Target C IC50 (decrease in CJ mRNA levels)
Procedure, shortened: as §1

Target C = experiment: HiBiT protein abundance assay, Target C (K562 HiBiT knock-in cells); format: cell-based, human; details: 24 hours
Procedure, shortened: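 K562 knock-in cells (10000/well, IMDM+1% FBS) treated 24 h at 37 °C with 10-point 3-fold dilutions, top final 10 μM, DMSO ≤0.25%. HiBiT lytic luminescence read; response normalized to unmodified K562 and DMSO-treated controls. IC50 interpolated at 50% abundance by four-parameter logistic fit.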

HiBiT-tagged HTT protein = experiment: HiBiT protein abundance assay, HTT (K562 HiBiT knock-in cells); format: cell-based, human; details: 24 hours
Procedure, shortened: as §2

K562 cells = experiment: Cell Titer Glo 2.0 cell viability assay in K562 cells; details: 72 hours

| Compound | pIC50 (SMN2 mRNA) | pIC50 (MYB mRNA) | pIC50 (HiBiT-tagged MYB protein) | pIC50 (HTT mRNA) | pIC50 (Target C mRNA) | pIC50 (Target C) | pIC50 (HiBiT-tagged HTT protein) | Viability (K562 cells) |
| --- | --- | --- | --- | --- | --- | --- | --- | --- |
| Cc1cn2cc(NC(=O)c3ccc(N4C[C@@H](C)N[C@@H](C)C4)c4ncc(Cl)nc34)cc(F)c2n1 [Compound 281] | 5.00 to 6.00 | 5.00 to 6.00 | 5.00 to 6.00 | < 5.00 | < 5.00 | 5.00 to 6.00 | 5.00 to 6.00 | C (C represents 1000-9999 nM) |
| Cc1cn2cc(NC(=O)c3ccc(N4C[C@@H](C)N[C@@H](C)C4)c4ncc(N(C)C)nc34)cc(F)c2n1 [Compound 283] | > 7.00 | > 7.00 | > 7.00 | 6.00 to 7.00 | 6.00 to 7.00 | 6.00 to 7.00 | 6.00 to 7.00 | B (B represents 100-1000 nM) |
| Cc1cn2c(C)c(NC(=O)c3ccc(N4C[C@@H](C)N[C@@H](C)C4)c4nccnc34)cc(F)c2n1 [Compound 285] | 6.00 to 7.00 | 6.00 to 7.00 | 6.00 to 7.00 | 5.00 to 6.00 | 5.00 to 6.00 | 5.00 to 6.00 | 5.00 to 6.00 | C (C represents 1000-9999 nM) |
| COc1nc(NC(=O)c2ccc(N3C[C@@H](C)N[C@@H](C)C3)c3nccnc23)nc2cn(C)nc12 [Compound 287] | 5.00 to 6.00 | 5.00 to 6.00 | 5.00 to 6.00 | < 5.00 | < 5.00 | < 5.00 | < 5.00 | D (D represents greater than 10 μM in K562 cells) |
| Cc1cn2cc(NC(=O)c3ccc(N4C[C@@H](C)N[C@@H](C)C4)c4nccnc34)nc(C)c2n1 [Compound 288] | > 7.00 | > 7.00 | > 7.00 | 5.00 to 6.00 | 5.00 to 6.00 | 5.00 to 6.00 | 5.00 to 6.00 | C (C represents 1000-9999 nM) |
| C[C@@H]1CN(c2ccc(C(=O)Nc3ccc4nc(N(C)C)oc4c3)c3nccnc23)C[C@H](C)N1 [Compound 290] | < 5.00 | 5.00 to 6.00 | < 5.00 | < 5.00 | < 5.00 | < 5.00 | < 5.00 | D (D represents greater than 10 μM in K562 cells) |
| COc1nc2ccc(NC(=O)c3ccc(N4C[C@@H](C)N[C@@H](C)C4)c4nccnc34)cc2o1 [Compound 292] | 5.00 to 6.00 | 5.00 to 6.00 | 5.00 to 6.00 | < 5.00 | < 5.00 | 5.00 to 6.00 | < 5.00 | D (D represents greater than 10 μM in K562 cells) |
| Cc1cn2cc(NC(=O)c3ccc(N4C[C@@H](C)N[C@@H](C)C4)c4nccnc34)cc(C#N)c2n1 [Compound 294] | > 7.00 | 6.00 to 7.00 | 6.00 to 7.00 | 5.00 to 6.00 | < 5.00 | < 5.00 | < 5.00 | D (D represents greater than 10 μM in K562 cells) |
| CCOc1cnc2c(N3C[C@@H](C)N[C@@H](C)C3)ccc(C(=O)Nc3cc(F)c4nc(C)cn4c3)c2n1 [Compound 296] | > 7.00 | > 7.00 | > 7.00 | 6.00 to 7.00 | 5.00 to 6.00 | 6.00 to 7.00 | 6.00 to 7.00 | B (B represents 100-1000 nM) |
| COc1nc(NC(=O)c2ccc(N3C[C@@H](C)N[C@@H](C)C3)c3nccnc23)cc2oc(C)nc12 [Compound 298] | > 7.00 | 6.00 to 7.00 | 6.00 to 7.00 | < 5.00 | < 5.00 | 5.00 to 6.00 | 5.00 to 6.00 | C (C represents 1000-9999 nM) |
| Cc1cn2cc(NC(=O)c3ccc(N4C[C@@H](C)N[C@@H](C)C4)c4cncnc34)cc(F)c2n1 [Compound 302] | > 7.00 | 6.00 to 7.00 | 6.00 to 7.00 | 5.00 to 6.00 | 5.00 to 6.00 | 5.00 to 6.00 | 5.00 to 6.00 | C (C represents 1000-9999 nM) |
| Cc1cn2cc(NC(=O)c3ccc(N4C[C@@H](C)N[C@@H](C)C4)c4nccnc34)cc(Cl)c2n1 [Compound 304] | > 7.00 | > 7.00 | > 7.00 | 5.00 to 6.00 | < 5.00 | < 5.00 | < 5.00 | B (B represents 100-1000 nM) |
| C[C@@H]1CN(c2ccc(C(=O)Nc3cc(F)c4nc(Cl)cn4c3)c3nccnc23)C[C@H](C)N1 [Compound 306] | > 7.00 | 6.00 to 7.00 | 6.00 to 7.00 | < 5.00 | < 5.00 | 5.00 to 6.00 | 5.00 to 6.00 | B (B represents 100-1000 nM) |
| CNc1nc(NC(=O)c2ccc(N3C[C@@H](C)N[C@@H](C)C3)c3nccnc23)cn2cc(C)nc12 [Compound 308] | 6.00 to 7.00 | 5.00 to 6.00 | 5.00 to 6.00 | < 5.00 | < 5.00 | < 5.00 | < 5.00 | C (C represents 1000-9999 nM) |
| Cc1c(O)c(NC(=O)c2ccc(N3C[C@@H](C)N[C@@H](C)C3)c3nccnc23)cc2cn(C)nc12 [Compound 310] | > 7.00 | 6.00 to 7.00 | 5.00 to 6.00 | < 5.00 | < 5.00 | < 5.00 | < 5.00 | C (C represents 1000-9999 nM) |
| Cc1cn2cc(NC(=O)c3ccc(N4CC[C@@H](N)C4)c4nccnc34)cc(F)c2n1 [Compound 315] | > 7.00 | 6.00 to 7.00 | 6.00 to 7.00 | < 5.00 | < 5.00 | 5.00 to 6.00 | 5.00 to 6.00 | B (B represents 100-1000 nM) |
| Cc1cn2cc(NC(=O)c3ccc(NC4CCNC4)c4nccnc34)cc(F)c2n1 (centres unmarked) [Compound 316] | > 7.00 | 6.00 to 7.00 | 6.00 to 7.00 | < 5.00 | < 5.00 | < 5.00 | 5.00 to 6.00 | B (B represents 100-1000 nM) |
| Cc1cn2cc(NC(=O)c3ccc(N4CCC5(CCN5)C4)c4nccnc34)cc(F)c2n1 (centres unmarked) [Compound 339] | > 7.00 | 6.00 to 7.00 | 6.00 to 7.00 | 5.00 to 6.00 | 5.00 to 6.00 | 5.00 to 6.00 | 5.00 to 6.00 | B (B represents 100-1000 nM) |
| Cc1cn2cc(NC(=O)c3ccc(N4C[C@@H](C)N[C@@H](C)C4)c4cccnc34)cc(F)c2n1 [Compound 340] | > 7.00 | 6.00 to 7.00 | 6.00 to 7.00 | 5.00 to 6.00 | 5.00 to 6.00 | < 5.00 | 5.00 to 6.00 | B (B represents 100-1000 nM) |
